In data set [1] the target is T1, Indoleamine 2,3-dioxygenase 1 (Homo sapiens, UniProt P14902). The data set is described as follows: Inhibition of recombinant human IDO1 assessed as reduction in N-formylkynurenine formation using L-tryptophan as substrate and measured after 15 mins.
Target sequence in this assay (P14902 whole entry): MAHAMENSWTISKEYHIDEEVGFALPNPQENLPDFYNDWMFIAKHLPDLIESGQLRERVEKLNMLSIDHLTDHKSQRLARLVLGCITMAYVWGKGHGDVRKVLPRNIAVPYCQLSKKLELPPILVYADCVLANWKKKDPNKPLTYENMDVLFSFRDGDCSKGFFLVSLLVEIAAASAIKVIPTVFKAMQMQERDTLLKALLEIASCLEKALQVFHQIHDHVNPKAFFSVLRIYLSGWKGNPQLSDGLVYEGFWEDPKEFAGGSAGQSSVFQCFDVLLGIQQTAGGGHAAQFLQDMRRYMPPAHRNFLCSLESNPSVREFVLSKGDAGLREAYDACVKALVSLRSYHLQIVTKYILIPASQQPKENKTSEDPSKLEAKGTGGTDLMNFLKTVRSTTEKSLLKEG
The target in data set [2] is T2, Tryptophan 2,3-dioxygenase (Homo sapiens, UniProt P48775). The experiment in a line: Inhibition of recombinant human TDO assessed as reduction in N-formylkynurenine formation using L-tryptophan as substrate and measured after 15 mins.
Target sequence in this assay (P48775 whole entry): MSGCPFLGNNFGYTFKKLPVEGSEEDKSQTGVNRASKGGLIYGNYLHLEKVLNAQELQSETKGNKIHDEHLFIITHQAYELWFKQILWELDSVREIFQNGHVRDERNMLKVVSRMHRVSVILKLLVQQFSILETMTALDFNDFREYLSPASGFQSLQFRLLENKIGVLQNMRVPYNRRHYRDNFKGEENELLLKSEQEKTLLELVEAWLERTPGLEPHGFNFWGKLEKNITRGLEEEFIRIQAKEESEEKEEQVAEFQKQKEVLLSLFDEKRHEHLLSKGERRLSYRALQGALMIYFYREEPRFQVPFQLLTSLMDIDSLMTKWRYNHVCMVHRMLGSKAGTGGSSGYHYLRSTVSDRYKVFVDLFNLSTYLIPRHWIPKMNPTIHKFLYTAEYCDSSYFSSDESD
In data set [3] the target is T2, Tryptophan 2,3-dioxygenase. The data set is described as follows: Inhibition of TDO in human HEK293 cells assessed as reduction in kynurenine formation using L-tryptophan as substrate by absorbance based analysis. The format is cell-based.
Target sequence in this assay (P48775 whole entry): as above
The target in data set [4] is T1, Indoleamine 2,3-dioxygenase 1. The data set is described as follows: Inhibition of IDO1 in IFNgamma-stimulated human HeLa cells assessed as reduction in kynurenine formation using L-tryptophan as substrate by absorbance based analysis. The data set is classed as cell-based.
Target sequence in this assay (P14902 whole entry): as the sequence (P14902 whole entry) above
Data set [5] has as its system HeLa. The experiment in a line: Induction of apoptosis in human HeLa cells assessed apoptotic cells at 5 uM measured after 6 hrs by Annexin V-FITC/PI based flow cytometry analysis. The data set is classed as functional, cell-based.
A short description of data set [6]: Cytotoxicity against human HEK-293T cells. The format is toxicity, cell-based.
Data set [7] addresses T2, Tryptophan 2,3-dioxygenase. The data set is described as follows: Competitive inhibition of recombinant human TDO measured by surface plasmon resonance assay. On the technique in general: SPR reads the build-up and loss of mass on a sensor chip optically.
Target sequence in this assay (P48775 whole entry): as the sequence (P48775 whole entry) above
Data set [8] deals with HeLa. The experiment in a line: Induction of apoptosis in human HeLa cells assessed as increase in Bax expression at 1 to 10 uM measured by western blot analysis. The format is functional, cell-based. The settings on record: dose 1-10 µM.
Data set [9] deals with HeLa. The experiment in a line: Induction of apoptosis in IFNgamma-stimulated human HeLa cells assessed apoptotic cells at 5 uM measured after 12 hrs by Annexin V-FITC/PI based flow cytometry analysis. The format is functional.
In data set [10] the target is T2, Tryptophan 2,3-dioxygenase. The experiment in a line: Competitive inhibition of recombinant human TDO measured by UV/visible spectrophotometric method.
Target sequence in this assay (P48775 whole entry, looked up): as the sequence (P48775 whole entry) above
Data set [11] deals with HeLa. The experiment in a line: Induction of apoptosis in human HeLa cells assessed as increase in Bax/Bcl-2 ratio at 1 to 10 uM measured by western blot analysis. The following applies: dose 1-10 µM. The format is functional, cell-based.
Data set [12] addresses T1, Indoleamine 2,3-dioxygenase 1. The data set is described as follows: Non-competitive inhibition of recombinant human IDO1 measured by surface plasmon resonance assay.
Target sequence in this assay (P14902 whole entry): as the sequence (P14902 whole entry) above
The subject of data set [13] is HeLa. The experiment in a line: Induction of apoptosis in human HeLa cells assessed as decrease in Bcl-2 expression at 1 to 10 uM measured by western blot analysis. The data set is classed as functional, cell-based. The following applies: dose 1-10 µM. (In general: A western blot detects proteins with antibodies after separation by electrophoresis.)
In data set [14] the test system is HeLa. The experiment in a line: Induction of apoptosis in human HeLa cells assessed apoptotic cells at 10 uM measured after 24 hrs by Annexin V-FITC/PI based flow cytometry analysis. The format is functional. For orientation: In flow cytometry, cells or beads pass a laser one at a time.
In data set [15] the target is T1, Indoleamine 2,3-dioxygenase 1. The experiment in a line: Non-competitive inhibition of recombinant human IDO1 measured by UV/visible spectrophotometric method.
Target sequence in this assay (P14902 whole entry, looked up): as the sequence (P14902 whole entry) above
Data set [16] in a line: Hemolytic activity in rat RBC at 500 uM incubated for 30 mins. The data set is classed as toxicity, cell-based, Erythrocyte. The settings on record: rat red blood cells (erythrocytes), read-out: Activity.
Data set [17] relates to HeLa. The experiment in a line: Induction of apoptosis in human HeLa cells assessed apoptotic cells at 5 uM measured after 12 hrs by Annexin V-FITC/PI based flow cytometry analysis. The data set is classed as functional.

Structures are written as SMILES. The source made the active and inactive calls. No cut-off for these calls is given here.

The term IC50 denotes the concentration that gives 50% inhibition. The Ki is the dissociation constant of the complex between target and ligand, obtained from inhibition or displacement.

`CC(=O)Oc1c(OC(C)=O)c2c(C)coc2c2ccc3c(c12)CCCC3(C)C`: the half-inhibitory concentration (IC50) in data set [1] and in data set [2] was > 10 µM throughout.

Take `C[C@@H](CO)C1=C(O)C(=O)c2c(ccc3c2CCCC3(C)C)C1=O`: the IC50 in data set [1] and in [2] was > 10 µM throughout.

For `Cc1coc2c1C(=O)C(=O)c1c-2ccc2c1C(=O)C(O)=CC2(C)C`, the IC50 in data set [3] is > 10 µM; in data set [1], 2.88 µM; in data set [2] it was 1.01 µM; in data set [4], > 10 µM.

Regarding `CC(=O)OCc1coc2c1C(=O)C(=O)c1c-2ccc2c1CCC(=O)C2(C)C`, the IC50 in data set [3] was found to be 0.86 µM; in data set [1] it was 1.73 µM; in data set [2], 0.67 µM; in data set [4], 0.81 µM.

As for `CC1(C)C(=O)C=Cc2c1ccc1c2C(=O)C(=O)c2c(CO)coc2-1`, the half-inhibitory concentration (IC50) in [3] was 1.42 µM; in [1], 0.22 µM; in [2], 0.45 µM; in [4] it was 2.56 µM.

Regarding `C[C@H]1COC2=C1C(=O)C(=O)c1c2ccc2c1CCCC2(C)C` [CRYPTOTANSHINONE], the IC50 in [1] was determined as 10 µM; in data set [2] it was 9.8 µM.

With `Cc1coc2c1C(=O)C(=O)c1c-2ccc2c1CCCC2(C)C` [TANSHINONE IIA], the IC50 in data set [1] and in [2] was > 10 µM each time.

In the case of `CC(=O)OCc1coc2c1C(=O)C(=O)c1c-2ccc2c1C=CC(=O)C2(C)C`, the IC50 in data set [3] was 1.87 µM; in data set [6] it was > 10 µM; in [1], 0.07 µM; in data set [2], 0.16 µM; in [4], 0.27 µM. The result in the data set on HeLa [5], with HeLa [8], in the data set on HeLa [11] and in the data set with HeLa [13] was Active. For the same compound, the inhibition constant Ki came to 0.73 µM in data set [7] and 0.23 µM in data set [12]. Further, the results for the Activity with HeLa [9], in the data set with HeLa [14] and in the data set on HeLa [17] were 68.6%, 92.8% and 39.9%, respectively. The inhibition entry in [10] and in [15] was “Active” each time. Also, the hemolysis at 0.5 h, 500 µM in data set [16] was 10%.

With `CC1(C)CCCc2c1ccc1c2C(=O)C(=O)c2c(CO)coc2-1` [PRZEWAQUINONE A], the IC50 in data set [3] is 7.18 µM; in data set [1] it was 1.07 µM; in [2], 0.45 µM; in data set [4], > 10 µM.

Turning to `Cc1coc2c1c(=O)oc(=O)c1c3c(ccc12)C(C)(C)CCC3`, the 50% inhibitory concentration (IC50) in data set [1] and in [2] was > 10 µM throughout.

For `Cc1coc2c1C(=O)C(=O)c1c-2ccc2c1C(Br)CCC2(C)C` (configuration not stated), the half-inhibitory concentration (IC50) in [3] is 8.1 µM; in data set [1], 1.5 µM; in [2], 0.71 µM; in data set [4], > 10 µM.

`Cc1coc2c1C(=O)C(=O)c1c-2ccc2c1CC[C@H](OS(C)(=O)=O)C2(C)C`: the IC50 in data set [3] was > 10 µM; in [1], 0.81 µM; in [2], 1.21 µM; in [4], 5.1 µM.

`NS(=O)(=O)NCCNc1nonc1C(=NO)Nc1ccc(F)c(Br)c1` [EPACADOSTAT]: the IC50 came out at 10.4 µM in [3] and 16.1 µM in data set [2].

On to `CC1(C)C(=O)CCc2c1ccc1c2C(=O)C(=O)c2c(CO)coc2-1`, for which the IC50 was 3.13 µM in data set [3], 0.16 µM in data set [1], 0.2 µM in data set [2] and 0.45 µM in [4].

On to `Cc1c(Br)oc2c1C(=O)C(=O)c1c-2ccc2c1CCCC2(C)C`, for which the IC50 in data set [1] and in [2] was > 10 µM in each case.

For the compound `Cc1coc2c1C(=O)C(=O)c1c-2ccc2c1C=CC(=O)C2(C)C`, the 50% inhibitory concentration (IC50) in [3] was > 10 µM; in [1], 0.98 µM; in [2] it was 0.96 µM; in [4] it was 9.33 µM.

Consider `CC(=O)O[C@H]1CCc2c(ccc3c2C(=O)C(=O)c2c(CO)coc2-3)C1(C)C`, for which the half-inhibitory concentration (IC50) in data set [3] worked out at 1.91 µM; in data set [1] it was 0.75 µM; in [2], 1.84 µM; in data set [4], 1.87 µM.

For `COC(=O)c1coc2c1C(=O)C(=O)c1c-2ccc2c1C=CC(=O)C2(C)C`, the half-inhibitory concentration (IC50) in data set [1] and in data set [2] was > 10 µM each time.

On to `Cc1coc2c1C(=O)C(=O)c1c-2ccc2c1CC[C@H](O)C2(C)C`, for which the 50% inhibitory concentration (IC50) in data set [3] was > 10 µM; in data set [1] it was 5.12 µM; in data set [2], 2.7 µM; in data set [4] it was > 10 µM.

Regarding `Cc1coc2c1C(=O)C(=O)c1c-2ccc2c1C=CCC2(C)C`, the IC50 in data set [1] and in data set [2] was > 10 µM in each case.

Turning to `CC(=O)O[C@H]1CCc2c(ccc3c2C(=O)C(=O)c2c(C)coc2-3)C1(C)C`, the concentration for half-maximal inhibition (IC50) was 2.8 µM in data set [3], 0.4 µM in data set [1], 0.37 µM in [2] and > 10 µM in [4].

Turning to `Cc1c[nH]c2c1C(=O)C(=O)c1c-2ccc2c1CCCC2(C)C`, the IC50 in data set [1] and in data set [2] was > 10 µM each time.

As for `Cc1coc2c1C(=O)C(=O)c1c-2ccc2c1CCC(=O)C2(C)C`, the IC50 in [3] was > 10 µM; in [1] it was 0.36 µM; in data set [2], 0.94 µM; in data set [4], > 10 µM.

Regarding `CC(=O)OCc1coc2c1C(=O)C(=O)c1c-2ccc2c1CC[C@H](O)C2(C)C`, the 50% inhibitory concentration (IC50) was found to be 2.06 µM in [3], 0.67 µM in [1], 2.42 µM in [2] and 2.42 µM in data set [4].

With `CC1(C)C(=O)C=Cc2c1ccc1c2C(=O)C(=O)c2c(CF)coc2-1`, the IC50 in data set [3] is 0.73 µM; in [1] it was 0.42 µM; in [2], 0.57 µM; in data set [4], 0.65 µM.

On to `CCN(CC)C(=O)c1coc2c1C(=O)C(=O)c1c-2ccc2c1C=CC(=O)C2(C)C`, for which the IC50 is > 10 µM in data set [3], 3.27 µM in [1], 9.54 µM in data set [2] and > 10 µM in data set [4].

Consider `CC1(C)C(=O)C=Cc2c1ccc1c2C(=O)C(=O)c2c(C=O)coc2-1`, for which the half-inhibitory concentration (IC50) in [1] and in data set [2] was > 10 µM in each case.

`C[C@@H](C=O)C1=C(O)C(=O)c2c(ccc3c2CCCC3(C)C)C1=O`: the 50% inhibitory concentration (IC50) in [1] and in [2] was > 10 µM throughout.

With `CC1(C)c2ccc3c(c2CC[C@@H]1O)C(=O)C(=O)c1c(CO)coc1-3`, the IC50 in data set [3] came out at 0.95 µM; in data set [1], 0.59 µM; in [2] it was 1.01 µM; in data set [4], 1.67 µM.

Consider `CC1(C)C(=O)C=Cc2c1ccc1c2C(=O)C(=O)c2c(CCl)coc2-1`, for which the 50% inhibitory concentration (IC50) is 0.34 µM in [3], 0.14 µM in [1], 0.11 µM in data set [2] and 0.68 µM in [4].

For `CC1(C)C(=O)C=Cc2c1ccc1c2C(=O)C(=O)c2c(C(=O)O)coc2-1`, the IC50 was > 10 µM in data set [3], 4.57 µM in data set [1], > 10 µM in data set [2] and 8.55 µM in [4].

`Cc1coc2c1C(=O)C(=O)c1c-2ccc2c1C(=O)C(O)CC2(C)C` (configuration not stated): the IC50 in data set [3] is > 10 µM; in [1], 0.49 µM; in data set [2] it was 1.48 µM; in data set [4], > 10 µM.

The values are drawn from ChEMBL document CHEMBL5154829, “Discovery and biological evaluation of tanshinone derivatives as potent dual inhibitors of indoleamine 2, 3-dioxygenase 1 and tryptophan 2, 3-dioxygenase” (Eur J Med Chem, 2022).
